In patent publication US20140357487A1, “PLANTS HAVING INCREASED TOLERANCE TO HERBICIDES” (BASF SE, priority 2011, published 2014):

How the values were obtained:
[1] = target: T1, Arabidopsis HPPD (SEQ ID: 53) (Arabidopsis thaliana, UniProt P93836); experiment: HPPD activity assay, Arabidopsis wild-type HPPD; assay type: biochemical; settings: Arabidopsis HPPD; substrate; read-out: michaelis constant Km (4-HPP)
T1 construct: His6 (N); made in house; host or cells: E. coli BL21 (DE3)
T1 sequence (P93836 1-445): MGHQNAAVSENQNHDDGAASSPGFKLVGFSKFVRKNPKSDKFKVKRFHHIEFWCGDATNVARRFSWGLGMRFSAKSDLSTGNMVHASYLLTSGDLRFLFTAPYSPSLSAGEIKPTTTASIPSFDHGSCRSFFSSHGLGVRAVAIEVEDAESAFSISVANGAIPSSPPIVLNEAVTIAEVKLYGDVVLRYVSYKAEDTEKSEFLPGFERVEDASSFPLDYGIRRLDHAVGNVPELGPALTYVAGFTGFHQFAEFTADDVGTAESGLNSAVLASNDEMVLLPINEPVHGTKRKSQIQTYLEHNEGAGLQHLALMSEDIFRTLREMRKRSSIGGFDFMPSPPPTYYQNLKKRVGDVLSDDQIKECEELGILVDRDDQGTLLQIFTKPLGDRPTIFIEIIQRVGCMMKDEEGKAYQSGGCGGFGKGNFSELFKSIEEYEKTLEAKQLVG
Experimental: (§1) HPPD produces homogentisic acid and CO2 from 4-hydroxyphenylpyruvate (4-HPP) and O2. The activity assay for HPPD is based on the analysis of homogentisic acid by reversed phase HPLC.
(§2) The assay mixture can contain 150 mM potassium phosphate buffer pH 7.0, 50 mM L-ascorbic acid, 1 μM FeSO4 and 7 μg of purified enzyme in a total volume of 1 ml.
(§3) Inhibitors are dissolved in DMSO (dimethylsulfoxide) to a concentration of 20 mM or 0.5 mM, respectively. From this stock solution serial five-fold dilutions are prepared in DMSO, which are used in the assay. The respective inhibitor solution accounts for 1% of the assay volume. […] After a preincubation of 30 min the reaction is started by adding 4-HPP to a final concentration of 0.1 mM. The reaction is allowed to proceed for 120 min at room temperature. The reaction is stopped by addition of 100 μl of 4.5 M phosphoric acid.
(§4) Activities are normalized by setting the uninhibited enzyme activity to 100%. IC50 values are calculated using non-linear regression.
(§5) The assay mixture can contain 150 mM potassium phosphate buffer pH 7.0, 50 mM L-ascorbic acid, 100 μM Catalase (Sigma-Aldrich), 1 μM FeSO4 and 0.2 units of purified HPPD enzyme in a total volume of 505 μl. 1 unit is defined as the amount of enzyme that is required to produce 1 nmol of HGA per minute at 20° C.
(§6) Inhibitors are dissolved in DMSO (dimethylsulfoxide) to a concentration of 0.5 mM. From this stock solution serial five-fold dilutions are prepared in DMSO, which are used in the assay. The respective inhibitor solution accounts for 1% of the assay volume. […] Activities are normalized by setting the uninhibited enzyme activity to 100%. IC50 values are calculated using non-linear regression.
(§7) Using methods which are described in the above examples or well known in the art, purified, recombinant wildtype HPPD enzymes are characterized with respect to their kinetic properties and sensitivity towards HPPD inhibiting herbicides. Apparent michaelis constants (Km) and maximal reaction velocities (Vmax) are calculated by non-linear regression with the software GraphPad Prism 5 (GraphPad Software, La Jolla, USA) using a substrate inhibition model.
(§8) Field performance of the HPPD enzyme, which is used as a herbicide tolerance trait, may depend not only on its lack of sensitivity towards HPPD inhibiting herbicides but also on its activity. To assess the potential performance of a herbicide tolerance trait a tolerance index (TI) is calculated using the following formula: […]
Easy comparison and ranking of each trait is enabled by normalizing tolerance indexes on Arabidopsis wild-type HPPD.

[2] = target: T2, Hordeum HPPD (SEQ ID: 2) (Hordeum vulgare, UniProt O48604, A164G/R146V/R147D/R148G); experiment: HPPD activity assay, Hordeum wild-type HPPD; assay type: biochemical; settings: Hordeum HPPD; substrate; read-out: michaelis constant Km (4-HPP)
T2 construct: His (N); made in house; host or cells: E. coli BL21 (DE3)
T2 sequence (O48604 whole entry R146V/R147D/R148G/A164G): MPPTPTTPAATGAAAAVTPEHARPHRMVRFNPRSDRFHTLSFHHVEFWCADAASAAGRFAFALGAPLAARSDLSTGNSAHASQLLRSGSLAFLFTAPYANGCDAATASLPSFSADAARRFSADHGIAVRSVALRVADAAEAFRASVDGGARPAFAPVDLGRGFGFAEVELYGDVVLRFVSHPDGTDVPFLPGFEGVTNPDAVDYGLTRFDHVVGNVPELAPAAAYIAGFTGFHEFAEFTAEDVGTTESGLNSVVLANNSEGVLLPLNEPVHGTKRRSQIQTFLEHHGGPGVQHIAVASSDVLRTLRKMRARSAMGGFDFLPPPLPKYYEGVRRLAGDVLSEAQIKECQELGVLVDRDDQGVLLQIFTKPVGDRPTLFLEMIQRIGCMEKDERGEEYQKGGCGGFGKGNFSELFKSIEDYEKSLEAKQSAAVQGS
Experimental: as §1, §2, §3, §4, §5, §6, §7, §8

Molecule O=C(O)C(=O)Cc1ccc(O)cc1 [Inhibitor 4-HPP, 4-hydroxyphenylpyruvate, reference compound] has a Km [1] of 13 µM and a Km [2] of 26 µM.
